Converted amounts (≈) assume the structure as drawn. Positions of bridges follow the written chain, without caps; N, C: chain ends. Non-standard residues stand in square brackets, D forms with d. Residues, ends and D or L forms follow the SMILES beside them. *: point of attachment. Octanoyl = CCCCCCCC(=O)*; Dab = NCC[C@H](N)C(=O)O
Tests used:
Pseudomonas aeruginosa = test system: Pseudomonas aeruginosa
Outline: (§1)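 Read-out is the MIC, obtained by broth microdilution under CLSI guidance. Lipopeptides (TFA salt form) were diluted in cation-adjusted Mueller-Hinton broth, with polymyxin B sulphate run alongside as control.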

Acinetobacter baumannii = test system: Acinetobacter baumannii
Outline: as §1

Enterobacter cloacae = test system: Enterobacter cloacae
Outline: as §1

Klebsiella pneumoniae = test system: Klebsiella pneumoniae
Outline: as §1

Structure (SMILES)	MIC (Pseudomonas aeruginosa)	Minimum inhibitory concentration, Pa ATCC 27853 (Pseudomonas aeruginosa)	Minimum inhibitory concentration, Pa FADDI-PA022 (Pseudomonas aeruginosa)	Minimum inhibitory concentration, Pa FADDI-PA025 (Pseudomonas aeruginosa)	MIC (Acinetobacter baumannii)	Minimum inhibitory concentration, Ab A ATCC 17978 (Acinetobacter baumannii)	Minimum inhibitory concentration, Ab ATCC 19606 (Acinetobacter baumannii)	Minimum inhibitory concentration, Ab FADDI-AB034 (Acinetobacter baumannii)	Minimum inhibitory concentration, Ec FADDI-EC001 (Enterobacter cloacae)	Minimum inhibitory concentration, Ec FADDI-EC003 (Enterobacter cloacae)	Minimum inhibitory concentration, Ec FADDI-EC006 (Enterobacter cloacae)	MIC (Klebsiella pneumoniae)
CCCCCCCC(=O)N[C@@H](CCN)C(=O)N[C@H](C(=O)N[C@H](CO)C(=O)N[C@H]1CCNC(=O)[C@H]([C@@H](C)O)NC(=O)[C@H](CCN)NC(=O)[C@H](CCN)NC(=O)[C@H](C(C)C)NC(=O)[C@@H](CC(C)C)NC(=O)[C@H](CCN)NC1=O)[C@@H](C)O [Compound 5] (Octanoyl-[Dab]T[dS][Dab][Dab][dL]V[Dab][Dab]T; lactam 4-C)	2 µg/mL (≈ 1.77 µM)	2 µg/mL (≈ 1.77 µM)	4 µg/mL (≈ 3.54 µM)	16 µg/mL (≈ 14.2 µM)	<0.125 µg/mL	<0.125 µg/mL	<0.125 µg/mL	0.25 µg/mL (≈ 0.222 µM)	0.25 µg/mL (≈ 0.222 µM)	<0.125 µg/mL	0.25 µg/mL (≈ 0.222 µM)	<0.125 µg/mL
CCCCCCCC(=O)N[C@@H](CCN)C(=O)N[C@H](C(=O)N[C@H](CO)C(=O)N[C@H]1CCNC(=O)[C@H]([C@@H](C)O)NC(=O)[C@H](CCN)NC(=O)[C@H](CCN)NC(=O)[C@H](C)NC(=O)[C@@H](CC(C)C)NC(=O)[C@H](CCN)NC1=O)[C@@H](C)O [Compound 2] (Octanoyl-[Dab]T[dS][Dab][Dab][dL]A[Dab][Dab]T; lactam 4-C)	8 µg/mL (≈ 7.27 µM)	8 µg/mL (≈ 7.27 µM)	8 µg/mL (≈ 7.27 µM)	>32 µg/mL	0.5 µg/mL (≈ 0.454 µM)	0.5 µg/mL (≈ 0.454 µM)	0.5 µg/mL (≈ 0.454 µM)	0.5 µg/mL (≈ 0.454 µM)	<0.125 µg/mL	<0.125 µg/mL	0.5 µg/mL (≈ 0.454 µM)	0.5 µg/mL (≈ 0.454 µM)
